Experimental data taken from US6967213B2, “Isothiazole derivatives, process for the preparation thereof, and pharmaceutical composition including the same” (CJ Corp., priority 2003, dated 2005).

Columns and labels:
cyclooxygenase-1 = target: T1, cyclooxygenase-1 (Homo sapiens, UniProt P23219); assay: Inhibitive effects against cyclooxygenase-1 using U-937 (PGE2 quantitation); type: cell-based; conditions: U-937 cells, arachidonic acid substrate
T1 construct: A cultured U-937 (humane lymphoma cell with Deposit No. 21593, obtained from Korean cell line bank) was centrifuged to collect the pellet; endogenous in cells; host or cells: U-937 (Korean cell line bank, Deposit No. 21593)
Procedure: Then, the pellet was diluted with 1×HBSS(Hank's balanced salt solution) at the concentration of 1×10^6 cells/ml, and 1 ml of them was transferred into each of 12-well plates.
Arachidonic acid as a substrate was dissolved in ethanol to prepare a stock solution with a concentration of 10 mM, followed by diluting with 1×HBSS to prepare the solution of 1 mM. 10 μl of 1 mM Arachidonic acid solution was added to each of the treated wells and the mixture was cultured at 37° C. in CO2 incubator for 30 minutes. The cell solution of each well was collected in the centrifuge tube and centrifuged at 4° C., for 5 minutes at 10,000 rpm. As PGE2 existed in the supernatant separated from collected cell, the concentration of PGE2 was quantitated by using monoclonal kit from Cayman Chemicals, and the concentration of samples and DMSO vehicle were compared to estimate the inhibition ratio (%) of each compound against cyclooxygenase-1. Ultimately, the inhibition effect against the cyclooxygenase-1 enzyme was obtained from the result.

cyclooxygenase-2 = target: T2, cyclooxygenase-2 (Mus musculus, UniProt Q05769); assay: Inhibitive effects against cyclooxygenase-2 using Raw 264.7 (interferon/LPS-induced PGE2, EIA); type: cell-based; conditions: Raw 264.7 cells, interferon + LPS, 18 hours
T2 construct: After seeding 2×10^6 cells of Raw 264.7 cell (obtained from Korean cell line bank, Deposit No. 40071) into each of 12-well plates; endogenous in cells; host or cells: Raw 264.7 (Korean cell line bank, Deposit No. 40071), aspirin-pretreated, induced with interferon and LPS
T2 sequence (Q05769 18-604): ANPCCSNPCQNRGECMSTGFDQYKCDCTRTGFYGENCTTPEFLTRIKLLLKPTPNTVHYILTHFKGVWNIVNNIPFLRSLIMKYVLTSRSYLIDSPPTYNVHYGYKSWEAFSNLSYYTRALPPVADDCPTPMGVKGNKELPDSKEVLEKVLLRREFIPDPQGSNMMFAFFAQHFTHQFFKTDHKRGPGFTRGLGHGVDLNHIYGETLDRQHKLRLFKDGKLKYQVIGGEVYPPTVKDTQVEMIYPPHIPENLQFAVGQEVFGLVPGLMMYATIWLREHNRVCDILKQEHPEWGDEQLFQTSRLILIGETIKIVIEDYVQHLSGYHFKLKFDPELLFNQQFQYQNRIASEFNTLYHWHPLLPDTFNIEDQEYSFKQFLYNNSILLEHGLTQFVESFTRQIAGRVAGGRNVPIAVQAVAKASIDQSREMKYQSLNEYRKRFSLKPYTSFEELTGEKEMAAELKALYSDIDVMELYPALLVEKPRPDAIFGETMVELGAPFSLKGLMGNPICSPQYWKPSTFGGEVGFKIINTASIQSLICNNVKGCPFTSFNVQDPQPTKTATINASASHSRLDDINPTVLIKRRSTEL
Procedure: In addition, the samples were treated with 100 units/ml of interferon ? and 100 ng/ml of lipopolysaccharide(LPS), and cultured for 18 hours. Then, the media was transferred to other test tubes and PGE 2 was quantitated by using EIA kit (Cayman Chemicals).
The % inhibition was calculated as follows, and the results were described in Table 1.
% inhibition={(PGE2 concentration compensated with interferon ? and LPS-PGE2 concentration compensated with analysis sample)/(PGE2 concentration compensated with interferon ? and LPS)}×100

T1 sequence (P23219 24-599): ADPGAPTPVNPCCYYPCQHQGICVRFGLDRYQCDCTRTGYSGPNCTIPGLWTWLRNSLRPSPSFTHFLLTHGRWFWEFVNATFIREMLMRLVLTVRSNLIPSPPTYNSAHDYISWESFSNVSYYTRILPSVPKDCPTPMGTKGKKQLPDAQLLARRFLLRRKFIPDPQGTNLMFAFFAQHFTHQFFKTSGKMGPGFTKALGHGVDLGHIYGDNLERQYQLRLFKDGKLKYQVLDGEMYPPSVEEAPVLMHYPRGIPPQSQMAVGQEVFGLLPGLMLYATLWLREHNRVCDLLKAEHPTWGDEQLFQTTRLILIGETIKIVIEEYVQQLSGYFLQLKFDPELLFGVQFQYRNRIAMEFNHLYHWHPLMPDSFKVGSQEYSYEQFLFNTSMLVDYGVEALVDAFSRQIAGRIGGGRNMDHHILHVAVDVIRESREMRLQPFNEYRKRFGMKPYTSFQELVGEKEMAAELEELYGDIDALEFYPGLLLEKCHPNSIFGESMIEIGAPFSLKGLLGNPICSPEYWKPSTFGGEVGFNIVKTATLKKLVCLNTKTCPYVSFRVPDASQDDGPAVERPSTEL

Row | Compound | Inhibitory effects of cyclooxygenase (COX): COX-1 (10 μM) (cyclooxygenase-1) [% inhibition] | Inhibitory effects of cyclooxygenase (COX): COX-2 (30 nM) (cyclooxygenase-2) [% inhibition]
1 | Cc1snc(-c2ccc(S(C)(=O)=O)cc2)c1-c1ccc(F)cc1 [Example 1, 4-(4-fluorophenyl)-3-(4-methanesulfonyl)-5-methyl-isothiazole] | 29.8 | 63.7
2 | Cc1snc(-c2ccccc2)c1-c1ccc(S(N)(=O)=O)cc1 [Example 2, 4-(5-methyl-3-phenyl-isothiazole-4-yl)-benzenesulfonamide] | 35.5 | 60.2
3 | Cc1snc(-c2ccc(Br)cc2)c1-c1ccc(S(N)(=O)=O)cc1 [Example 3, 4-[3-(4-bromophenyl)-5-methyl-isothiazole-4-yl]-benzenesulfonamide] | 38.8 | 58.5
4 | Cc1snc(-c2ccc(F)cc2)c1-c1ccc(S(N)(=O)=O)cc1 [Example 5, 4-[3-(4-fluorophenyl)-5-methyl-isothiazole-4-yl]-benzenesulfonamide] | 77.8 | 72.3
5 | Cc1snc(-c2ccccc2)c1-c1ccc(S(C)(=O)=O)cc1 [Example 6, 4-(4-methanesulfonylphenyl)-5-methyl-3-phenyl-isothiazole] | 56.4 | 69.0
6 | Cc1snc(-c2ccc(Br)cc2)c1-c1ccc(S(C)(=O)=O)cc1 [Example 7, 3-(4-bromophenyl)-4-(4-methanesulfonylphenyl)-5-methyl-isothiazole] | 45.7 | 65.6

Other lines, results leading:

Row | Inhibitory effects of cyclooxygenase (COX): COX-1 (10 μM) (cyclooxygenase-1) [% inhibition] | Inhibitory effects of cyclooxygenase (COX): COX-2 (30 nM) (cyclooxygenase-2) [% inhibition] | Compound
7 | 79.5 | 67.7 | COc1ccc(-c2nsc(C)c2-c2ccc(S(N)(=O)=O)cc2)cc1 [Example 4, 4-[3-(4-methoxyphenyl)-5-methyl-isothiazole-4-yl]-benzenesulfonamide]
8 | 80.1 | 76.4 | COc1ccc(-c2nsc(C)c2-c2ccc(S(C)(=O)=O)cc2)cc1 [Example 8, 3-(4-methoxyphenyl)-4-(4-methanesulfonylphenyl)-5-methyl-isothiazole]
9 | 67.2 | 65.1 | Cc1snc(-c2ccc(F)cc2)c1-c1ccc(S(C)(=O)=O)cc1 [Example 9, 3-(4-fluorophenyl)-4-(4-methanesulfonyl)-5-methyl-isothiazole]
